Experimental data published in patent US6737383B1, “Herbicidal oxadiazolidines” (priority 1999, dated 2004).

How the values were obtained:
bedstraw = test: Test B pre/postemergence bedstraw; assay type: in vivo, Galium aparine
In short: (§1)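 Response is a visual 0-to-10 score relative to untreated plants, where 0 means no effect and 10 means complete control, taken twelve to sixteen days after application. Treatments went onto soil at planting and onto foliage of 1- to 4-leaf plants, using a surfactant-containing non-phytotoxic solvent.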

blackgrass = test: Test B pre/postemergence blackgrass; assay type: in vivo, Alopecurus myosuroides
In short: as §1

giant foxtail = test: Test B pre/postemergence giant foxtail; assay type: in vivo, Setaria faberii
In short: as §1

morningglory = test: Test B pre/postemergence morningglory; assay type: in vivo, Ipomoea hederacea
In short: as §1

pigweed = test: Test B pre/postemergence pigweed; assay type: in vivo, Amaranthus retroflexus
In short: as §1

rape = test: Test B pre/postemergence rape; assay type: in vivo, Brassica napus
In short: as §1

soybean = test: Test B pre/postemergence soybean; assay type: in vivo, Glycine max
In short: as §1

sugar beet = test: Test B pre/postemergence sugar beet; assay type: in vivo, Beta vulgaris
In short: as §1

velvetleaf = test: Test B pre/postemergence velvetleaf; assay type: in vivo, Abutilon theophrasti
In short: as §1

wheat = test: Test B pre/postemergence wheat; assay type: in vivo, Triticum aestivum
In short: as §1

wild oat = test: Test B pre/postemergence wild oat; assay type: in vivo, Avena fatua
In short: as §1

purple nutsedge = test: Test B pre/postemergence purple nutsedge; assay type: in vivo, Cyperus rotundus
In short: as §1

duck salad = test: Test B flood test duck salad; assay type: in vivo, Heteranthera limosa; settings: Rate 125 g/ha; Postemergence section (flood test species); scale 0 to 10, 0 no effect, 10 complete control
In short: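 Each value is a visual injury score relative to controls, with 10 meaning complete control and 0 no effect. Evaluation took place twelve to sixteen days after the 2-leaf-stage plants were treated and kept in the greenhouse.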

[1] = Postemergence, Rate 62 g/ha, scale 0 to 10, 0 is no effect, 10 is complete control
[2] = Preemergence, Rate 62 g/ha, scale 0 to 10, 0 is no effect, 10 is complete control
[3] = Preemergence, Rate 125 g/ha, scale 0 to 10 (0 no effect, 10 complete control)
[4] = Preemergence, Rate 250 g/ha, scale of 0 to 10 where 0 is no effect and 10 is complete control
[5] = Preemergence, Rate 500 g/ha, scale 0 (no effect) to 10 (complete control)
[6] = Rate 500 g/ha, Postemergence, 0 to 10 scale (0 no effect, 10 complete control)
[7] = Postemergence, Rate 250 g/ha, scale 0 to 10, 0 no effect, 10 complete control
[8] = Rate 125 g/ha, Postemergence, scale 0 to 10, 0 no effect, 10 complete control

Cc1ccc(N(C(=O)n2oc(=O)n(-c3ccccc3C)c2=O)C(C)C)cc1 [Compound 40]
Bedstraw plant response rating (bedstraw; [1]): 0 | Plant response rating, Bedstraw (bedstraw; [2]): 0 | Plant response rating, Bedstraw (bedstraw; [3]): 0 | Plant response rating, Bedstraw (bedstraw; [4]): 0 | Bedstraw plant response rating (bedstraw; [5]): 0 | Bedstraw plant response rating (bedstraw; [6]): 2 | Blackgrass plant response rating (blackgrass; [1]): 0 | Blackgrass plant response rating (blackgrass; [7]): 4 | Plant response rating, Blackgrass (blackgrass; [2]): 0 | Plant response rating, Blackgrass (blackgrass; [3]): 0 | Plant response rating, Blackgrass (blackgrass; [4]): 1 | Blackgrass plant response rating (blackgrass; [5]): 6 | Blackgrass plant response rating (blackgrass; [8]): 0 | Blackgrass plant response rating (blackgrass; [6]): 7 | Giant foxtail plant response rating (giant foxtail; [1]): 0 | Giant foxtail plant response rating (giant foxtail; [7]): 1 | Plant response rating, Giant foxtail (giant foxtail; [2]): 9 | Plant response rating, Giant foxtail (giant foxtail; [3]): 9 | Plant response rating, Giant foxtail (giant foxtail; [4]): 10 | Giant foxtail plant response rating (giant foxtail; [5]): 10 | Giant foxtail plant response rating (giant foxtail; [8]): 0 | Giant foxtail plant response rating (giant foxtail; [6]): 3 | Morningglory plant response rating (morningglory; [1]): 3 | Morningglory plant response rating (morningglory; [7]): 6 | Plant response rating, Morningglory (morningglory; [2]): 0 | Plant response rating, Morningglory (morningglory; [3]): 0 | Plant response rating, Morningglory (morningglory; [4]): 0 | Morningglory plant response rating (morningglory; [5]): 0 | Morningglory plant response rating (morningglory; [8]): 6 | Morningglory plant response rating (morningglory; [6]): 7 | Redroot pigweed plant response rating (pigweed; [1]): 0 | Redroot pigweed plant response rating (pigweed; [7]): 2 | Plant response rating, Redroot pigweed (pigweed; [2]): 0 | Plant response rating, Redroot pigweed (pigweed; [3]): 1 | Plant response rating, Redroot pigweed (pigweed; [4]): 4 | Redroot pigweed plant response rating (pigweed; [5]): 6 | Redroot pigweed plant response rating (pigweed; [8]): 1 | Rape plant response rating (rape; [1]): 0 | Rape plant response rating (rape; [7]): 0 | Plant response rating, Rape (rape; [2]): 0 | Plant response rating, Rape (rape; [3]): 0 | Plant response rating, Rape (rape; [4]): 0 | Rape plant response rating (rape; [5]): 0 | Rape plant response rating (rape; [8]): 0 | Rape plant response rating (rape; [6]): 0 | Soybean plant response rating (soybean; [1]): 3 | Soybean plant response rating (soybean; [7]): 4 | Plant response rating, Soybean (soybean; [2]): 0 | Plant response rating, Soybean (soybean; [3]): 0 | Plant response rating, Soybean (soybean; [4]): 0 | Soybean plant response rating (soybean; [5]): 0 | Soybean plant response rating (soybean; [8]): 3 | Sugarbeets plant response rating (sugar beet; [1]): 0 | Sugarbeets plant response rating (sugar beet; [7]): 2 | Plant response rating, Sugarbeets (sugar beet; [2]): 0 | Plant response rating, Sugarbeets (sugar beet; [3]): 0 | Plant response rating, Sugarbeets (sugar beet; [4]): 0 | Sugarbeets plant response rating (sugar beet; [5]): 6 | Sugarbeets plant response rating (sugar beet; [8]): 0 | Velvetleaf plant response rating (velvetleaf; [1]): 0 | Velvetleaf plant response rating (velvetleaf; [7]): 0 | Plant response rating, Velvetleaf (velvetleaf; [2]): 0 | Plant response rating, Velvetleaf (velvetleaf; [3]): 0 | Plant response rating, Velvetleaf (velvetleaf; [4]): 0 | Velvetleaf plant response rating (velvetleaf; [5]): 0 | Velvetleaf plant response rating (velvetleaf; [8]): 0 | Wheat plant response rating (wheat; [1]): 0 | Wheat plant response rating (wheat; [7]): 0 | Plant response rating, Wheat (wheat; [2]): 0 | Plant response rating, Wheat (wheat; [3]): 0 | Plant response rating, Wheat (wheat; [4]): 0 | Wheat plant response rating (wheat; [5]): 0 | Wheat plant response rating (wheat; [8]): 0 | Wild oats plant response rating (wild oat; [1]): 0 | Wild oats plant response rating (wild oat; [7]): 0 | Plant response rating, Wild oats (wild oat; [3]): 0 | Plant response rating, Wild oats (wild oat; [4]): 0 | Wild oats plant response rating (wild oat; [5]): 5 | Wild oats plant response rating (wild oat; [8]): 0 | Nutsedge plant response rating (purple nutsedge; [1]): 0 | Nutsedge plant response rating (purple nutsedge; [7]): 0 | Plant response rating, Nutsedge (purple nutsedge; [2]): 0 | Plant response rating, Nutsedge (purple nutsedge; [3]): 0 | Plant response rating, Nutsedge (purple nutsedge; [4]): 0 | Nutsedge plant response rating (purple nutsedge; [5]): 0 | Nutsedge plant response rating (purple nutsedge; [8]): 0 | Nutsedge plant response rating (purple nutsedge; [6]): 0 | Ducksalad plant response rating (duck salad): 0
